According to US9969742B2, “Imidazotriazinone compounds” (Ironwood Pharmaceuticals, Inc., priority 2012, dated 2018):
Read-outs that look alike come from different tables or passages of the source.

Key:
Assay type in all cases: biochemical
PDE1A = target: T1, PDE1A (Homo sapiens, UniProt P54750); assay: Phosphodiesterase enzyme screening assay, PDE1A
T1 construct: purchased Reaction Biology Corporation, Malvern, Pa
Procedure, shortened: (§1)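 Read-out was electrophoretic mobility-shift separation on chip of fluorescent cyclic nucleotide from 5′-AMP/5′-GMP, with inhibition or enhancement judged against control wells (quadruplicate means). Reactions lasted 1 h at RT in HEPES pH 7.5 buffer with MgCl2, DTT and Brij plus 4.0 μM cGMP substrate, then were halted with EDTA stop buffer.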

PDE9A2 = target: T2, PDE9A2 (Homo sapiens, UniProt O76083); assay: Phosphodiesterase enzyme screening assay, PDE9A2
T2 construct: purchased Reaction Biology Corporation, Malvern, Pa
T2 sequence (O76083 1-533 isoform O76083-2): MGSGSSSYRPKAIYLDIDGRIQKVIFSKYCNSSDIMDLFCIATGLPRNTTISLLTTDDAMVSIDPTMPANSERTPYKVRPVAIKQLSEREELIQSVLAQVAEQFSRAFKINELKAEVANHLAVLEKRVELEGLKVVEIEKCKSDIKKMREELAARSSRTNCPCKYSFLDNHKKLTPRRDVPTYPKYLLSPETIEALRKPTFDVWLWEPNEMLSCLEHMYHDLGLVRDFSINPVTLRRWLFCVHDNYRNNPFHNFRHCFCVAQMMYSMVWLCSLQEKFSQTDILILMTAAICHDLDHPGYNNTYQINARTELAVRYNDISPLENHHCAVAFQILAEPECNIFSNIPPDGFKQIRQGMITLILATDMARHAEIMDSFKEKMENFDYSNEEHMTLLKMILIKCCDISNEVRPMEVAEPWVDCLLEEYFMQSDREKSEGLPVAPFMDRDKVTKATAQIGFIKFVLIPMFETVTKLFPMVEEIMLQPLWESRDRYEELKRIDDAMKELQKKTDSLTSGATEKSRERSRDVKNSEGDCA
Procedure, shortened: as §1

PDE1B = target: T3, PDE1B (Homo sapiens, UniProt Q01064); assay: Phosphodiesterase enzyme screening assay, PDE1B
T3 construct: purchased Reaction Biology Corporation, Malvern, Pa
T3 sequence (Q01064 whole entry): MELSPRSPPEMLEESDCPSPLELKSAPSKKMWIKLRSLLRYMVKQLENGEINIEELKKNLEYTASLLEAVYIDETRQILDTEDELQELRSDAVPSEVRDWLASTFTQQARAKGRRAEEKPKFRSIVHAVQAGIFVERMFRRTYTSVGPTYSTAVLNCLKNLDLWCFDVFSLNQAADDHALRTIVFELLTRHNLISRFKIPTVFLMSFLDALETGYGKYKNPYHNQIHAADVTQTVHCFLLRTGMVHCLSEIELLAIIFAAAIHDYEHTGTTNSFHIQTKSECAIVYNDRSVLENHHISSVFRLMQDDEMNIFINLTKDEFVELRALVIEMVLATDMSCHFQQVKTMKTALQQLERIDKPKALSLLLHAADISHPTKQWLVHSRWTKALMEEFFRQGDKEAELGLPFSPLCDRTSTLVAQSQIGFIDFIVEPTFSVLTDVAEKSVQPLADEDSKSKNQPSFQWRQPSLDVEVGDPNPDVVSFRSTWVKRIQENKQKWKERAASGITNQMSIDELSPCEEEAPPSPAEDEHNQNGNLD
Procedure, shortened: as §1

[1] = ratio of IC50 values, PDE1A versus PDE9A2, value greater than 1 = greater selectivity for PDE9A2
[2] = Table 3, 4.0 μM cGMP substrate, 1 hour at R.T., read-out: Band (PDE9A2 IC50)
[3] = ratio of IC50 values, PDE1B versus PDE9A2, value greater than 1 = greater selectivity for PDE9A2
[4] = Table 1, ratio of IC50 values, value greater than 1 indicates greater selectivity for PDE9A2
[5] = Table 1, 10 concentrations, 4.0 μM cGMP substrate, 1 hour at R.T., read-out: Band (PDE9A2 IC50)
[6] = ratio of IC50 values PDE1A vs PDE9A2, value greater than 1 indicates greater selectivity for PDE9A2
[7] = IC50 band, 4.0 μM cGMP substrate, 1 hour at R.T.
[8] = ratio of IC50 values PDE1B vs PDE9A2, value greater than 1 indicates greater selectivity for PDE9A2
[9] = ratio of IC50 values, PDE1A versus PDE9A2, value greater than 1 indicates greater selectivity for PDE9A2
[10] = ratio of IC50 values, PDE1B versus PDE9A2, value greater than 1 indicates greater selectivity for PDE9A2
[11] = ratio of IC50 values PDE1A / PDE9A2, value greater than 1 indicates greater selectivity for PDE9A2
[12] = 4.0 μM cGMP substrate, 1 hour at R.T., read-out: Band (PDE9A2 IC50)
[13] = ratio of IC50 values PDE1B / PDE9A2, value greater than 1 indicates greater selectivity for PDE9A2

T1 sequence (P54750 whole entry): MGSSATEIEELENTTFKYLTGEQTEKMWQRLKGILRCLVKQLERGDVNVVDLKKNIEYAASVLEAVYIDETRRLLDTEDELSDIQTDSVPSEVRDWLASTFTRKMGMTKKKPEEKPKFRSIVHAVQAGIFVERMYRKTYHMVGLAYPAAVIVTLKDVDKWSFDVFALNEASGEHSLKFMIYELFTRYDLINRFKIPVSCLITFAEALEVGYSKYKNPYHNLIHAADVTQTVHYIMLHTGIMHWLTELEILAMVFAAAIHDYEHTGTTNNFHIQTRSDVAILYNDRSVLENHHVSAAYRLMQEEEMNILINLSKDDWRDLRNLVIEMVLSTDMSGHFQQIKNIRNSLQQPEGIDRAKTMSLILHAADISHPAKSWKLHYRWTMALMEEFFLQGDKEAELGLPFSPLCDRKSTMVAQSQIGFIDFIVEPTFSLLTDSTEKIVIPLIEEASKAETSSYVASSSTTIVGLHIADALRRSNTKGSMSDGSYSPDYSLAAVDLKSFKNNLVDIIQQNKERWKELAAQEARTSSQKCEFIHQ

SMILES	PDE1A selectivity (versus PDE9A2) (PDE1A; [4])	IC50 (PDE9A2; [5])	PDE1B selectivity (versus PDE9A2) (PDE1B; [4])	PDE1A selectivity (versus PDE9A2) (PDE1A; [9])	IC50 (PDE9A2; read-out: Band (PDE9A2 IC50))	PDE1B selectivity (versus PDE9A2) (PDE1B; [10])	other results
CC1CN(Cc2ccc(F)cn2)CC1c1nn2c(C3CCOCC3)ncc2c(=O)[nH]1 (single isomer, unassigned; (+)) [(+)-2-((3,4-trans)-1-((5-fluoropyridin-2-yl)methyl)-4-methylpyrrolidin-3-yl)-7-(tetrahydro-2H-pyran-4-yl)imidazo[5,1-f][1,2,4]triazin-4(3H)-one]	–	–	–	–	–	–	PDE1A selectivity (versus PDE9A2) (PDE1A; [1]): 273; IC50 (PDE9A2; [2]): < 1 µM; PDE1B selectivity (versus PDE9A2) (PDE1B; [3]): 377
CC1CN(Cc2ccsc2)CC1c1nn2c(C3CCOCC3)ncc2c(=O)[nH]1 (single isomer, unassigned; (+)) [(+)-2-((3,4-trans)-4-methyl-1-(thiophen-3-ylmethyl)pyrrolidin-3-yl)-7-(tetrahydro-2H-pyran-4-yl)imidazo[5,1-f][1,2,4]triazin-4(3H)-one]	–	–	–	–	–	–	PDE1A selectivity (versus PDE9A2) (PDE1A; [1]): 176; IC50 (PDE9A2; [2]): < 1 µM; PDE1B selectivity (versus PDE9A2) (PDE1B; [3]): 209
CC1CN(Cc2nc3ccccn3n2)CC1c1nn2c(C3CCOCC3)ncc2c(=O)[nH]1 (single isomer, unassigned; (+)) [(+)-2-((3,4-trans)-1-([1,2,4]triazolo[1,5-a]pyridin-2-ylmethyl)-4-methylpyrrolidin-3-yl)-7-(tetrahydro-2H-pyran-4-yl)imidazo[5,1-f][1,2,4]triazin-4(3H)-one]	563	< 1 µM	457	–	–	–	–
CC1CN(Cc2ccccc2N2CCCC2)CC1c1nn2c(C3CCOCC3)ncc2c(=O)[nH]1 (single isomer, unassigned; (+)) [(+)-2-((3,4-trans)-4-methyl-1-(2-(pyrrolidin-1-yl)benzyl)pyrrolidin-3-yl)-7-(tetrahydro-2H-pyran-4-yl)imidazo[5,1-f][1,2,4]triazin-4(3H)-one]	184	< 1 µM	213	–	–	–	–
Cc1ccc(F)cc1-c1ncc2c(=O)[nH]c(C3CN(Cc4nc5ccccc5[nH]4)CC3C)nn12 (single isomer, unassigned; (+)) [(+)-2-((3,4-trans)-1-((1H-benzo[d]imidazol-2-yl)methyl)-4-methylpyrrolidin-3-yl)-7-(5-fluoro-2-methylphenyl)imidazo[5,1-f][1,2,4]triazin-4(3H)-one]	–	–	–	–	–	–	PDE1A selectivity (versus PDE9A2) (PDE1A; [6]): 89; IC50 (PDE9A2; [7]): < 1 µM; PDE1B selectivity (versus PDE9A2) (PDE1B; [8]): 130
Cc1ccccc1-c1ncc2c(=O)[nH]c(C3CN(Cc4nc5ccccc5[nH]4)CC3C)nn12 (single isomer, unassigned; (+)) [(+)-2-((3,4-trans)-1-((1H-benzo[d]imidazol-2-yl)methyl)-4-methylpyrrolidin-3-yl)-7-(o-tolyl)imidazo[5,1-f][1,2,4]triazin-4(3H)-one]	–	–	–	1740	< 1 µM	2990	–
CC1CN(Cc2ccccc2Br)CC1c1nn2c(C3CCOCC3)ncc2c(=O)[nH]1 (single isomer, unassigned; (+)) [(+)-2-((3,4-trans)-1-(2-bromobenzyl)-4-methylpyrrolidin-3-yl)-7-(tetrahydro-2H-pyran-4-yl)imidazo[5,1-f][1,2,4]triazin-4(3H)-one]	104	< 1 µM	28	–	–	–	–
Cc1ccccc1-c1ncc2c(=O)[nH]c(C3CN(Cc4ccccn4)CC3C)nn12 (single isomer, unassigned; (+)) [(+)-2-((3,4-trans)-4-methyl-1-(pyridin-2-ylmethyl)pyrrolidin-3-yl)-7-(o-tolyl)imidazo[5,1-f][1,2,4]triazin-4(3H)-one]	–	–	–	73	< 1 µM	148	–
CCC(CC)c1ncc2c(=O)[nH]c(C3CN(Cc4nc5ccccn5n4)CC3C)nn12 (single isomer, unassigned; (+)) [(+)-2-((3,4-trans)-1-([1,2,4]triazolo[1,5-a]pyridin-2-ylmethyl)-4-methylpyrrolidin-3-yl)-7-(pentan-3-yl)imidazo[5,1-f][1,2,4]triazin-4(3H)-one]	–	–	–	–	–	–	PDE1A selectivity (versus PDE9A2) (PDE1A; [11]): 386; IC50 (PDE9A2; [12]): < 1 µM; PDE1B selectivity (versus PDE9A2) (PDE1B; [13]): 306
CC1CN(Cc2cn3ccccc3n2)CC1c1nn2c(-c3ccc(F)cc3)ncc2c(=O)[nH]1 (single isomer, unassigned; (+)) [(+)-7-(4-fluorophenyl)-2-((3,4-trans)-1-(imidazo[1,2-a]pyridin-2-ylmethyl)-4-methylpyrrolidin-3-yl)imidazo[5,1-f][1,2,4]triazin-4(3H)-one]	–	–	–	120	< 1 µM	209	–
CC1CN(Cc2ccc(Cl)cc2)CC1c1nn2c(C3CCC(F)(F)CC3)ncc2c(=O)[nH]1 (single isomer, unassigned; (+)) [(+)-2-((3,4-trans)-1-(4-chlorobenzyl)-4-methylpyrrolidin-3-yl)-7-(4,4-difluorocyclohexyl)imidazo[5,1-f][1,2,4]triazin-4(3H)-one]	595	< 1 µM	1210	–	–	–	–
Cc1ccc(F)cc1-c1ncc2c(=O)[nH]c(C3CN(Cc4cn5ccccc5n4)CC3C)nn12 (single isomer, unassigned; (+)) [(+)-7-(5-fluoro-2-methylphenyl)-2-((3,4-trans)-1-(imidazo[1,2-a]pyridin-2-ylmethyl)-4-methylpyrrolidin-3-yl)imidazo[5,1-f][1,2,4]triazin-4(3H)-one]	–	–	–	–	–	–	PDE1A selectivity (versus PDE9A2) (PDE1A; [6]): 1437; IC50 (PDE9A2; [7]): < 1 µM; PDE1B selectivity (versus PDE9A2) (PDE1B; [8]): 1427
CC1CN(Cc2cc(Cl)ccc2Cl)CC1c1nn2c(C3CCOCC3)ncc2c(=O)[nH]1 (single isomer, unassigned; (+)) [(+)-2-((3,4-trans)-1-(2,5-dichlorobenzyl)-4-methylpyrrolidin-3-yl)-7-(tetrahydro-2H-pyran-4-yl)imidazo[5,1-f][1,2,4]triazin-4(3H)-one]	274	< 1 µM	90	–	–	–	–
CC1CN(Cc2ccc(Cl)c(C(F)(F)F)c2)CC1c1nn2c(C3CCOCC3)ncc2c(=O)[nH]1 (single isomer, unassigned; (+)) [(+)-2-((3,4-trans)-1-(4-chloro-3-(trifluoromethyl)benzyl)-4-methylpyrrolidin-3-yl)-7-(tetrahydro-2H-pyran-4-yl)imidazo[5,1-f][1,2,4]triazin-4(3H)-one]	–	–	–	–	–	–	PDE1A selectivity (versus PDE9A2) (PDE1A; ratio of IC50 values PDE1A / PDE9A2, value greater than 1 = greater selectivity for PDE9A2): 196; IC50 (PDE9A2; [12]): < 1 µM; PDE1B selectivity (versus PDE9A2) (PDE1B; ratio of IC50 values PDE1B / PDE9A2, value greater than 1 = greater selectivity for PDE9A2): 406
CC1CN(Cc2ccccn2)CC1c1nn2c(-c3cccc(F)c3)ncc2c(=O)[nH]1 (single isomer, unassigned; (+)) [(+)-7-(3-fluorophenyl)-2-((3,4-trans)-4-methyl-1-(pyridin-2-ylmethyl)pyrrolidin-3-yl)imidazo[5,1-f][1,2,4]triazin-4(3H)-one]	–	–	–	190	< 1 µM	236	–
C[C@@H]1CN(Cc2ccc3cccnc3c2)C[C@H]1c1nn2c(C3CCOCC3)ncc2c(=O)[nH]1 (relative stereo) [(+)-2-((3,4-trans)-4-methyl-1-(quinolin-7-ylmethyl)pyrrolidin-3-yl)-7-(tetrahydro-2H-pyran-4-yl)imidazo[5,1-f][1,2,4]triazin-4(3H)-one]	5020	< 1 µM	5180	–	–	–	–
CC1CN(Cc2ccccc2)CC1c1nn2c(-c3ccccc3F)ncc2c(=O)[nH]1 (single isomer, unassigned; (+)) [(+)-2-((3,4-trans)-1-benzyl-4-methylpyrrolidin-3-yl)-7-(2-fluorophenyl)imidazo[5,1-f][1,2,4]triazin-4(3H)-one]	–	–	–	–	–	–	PDE1A selectivity (versus PDE9A2) (PDE1A; [11]): 76; IC50 (PDE9A2; [12]): < 1 µM; PDE1B selectivity (versus PDE9A2) (PDE1B; [13]): 83
Cc1cc(F)c(F)cc1-c1ncc2c(=O)[nH]c(C3CN(Cc4ccccc4)CC3C)nn12 (single isomer, unassigned; (+)) [(+)-2-((3,4-trans)-1-benzyl-4-methylpyrrolidin-3-yl)-7-(4,5-difluoro-2-methylphenyl)imidazo[5,1-f][1,2,4]triazin-4(3H)-one]	–	–	–	174	< 1 µM	143	–
CC1CN(Cc2nc3ccccn3n2)CC1c1nn2c(C3CCCC3)ncc2c(=O)[nH]1 (single isomer, unassigned; (+)) [(+)-2-((3,4-trans)-1-([1,2,4]triazolo[1,5-a]pyridin-2-ylmethyl)-4-methylpyrrolidin-3-yl)-7-cyclopentylimidazo[5,1-f][1,2,4]triazin-4(3H)-one]	–	–	–	98	< 1 µM	204	–
